According to a melting point compilation (Tetko et al.; mined from patent text by program, amines drawn as free bases though some values may be those of a salt):

Compound	melting point [°C]
O=S(=O)(Nc1ccc(Cl)nc1I)c1ccc2ncccc2c1	> 250
O=C(Nc1c[nH]nc1C(=O)NCC(F)(F)F)c1ccccn1	235 to 236
CCSC[C@@H]1[C@@H](c2ccc(Cl)c(Cl)c2)C[C@@H]2CC[C@H]1N2C	69 to 71
CC1(O)CCC2C3CCC45OC4(C)C(O)=C(C#N)CC5(C)C3CCC21C (configuration not stated)	170 to 171
O=C(O)c1ccc(CBr)c(C(F)(F)F)c1	136 to 140
CC(Cc1cccc(NC(N)=O)c1)NC=O (configuration not stated)	133 to 136
O=C1CCCC2=C1C(c1ccc(F)c(I)c1)C1=C(CCS1)N2 (configuration not stated)	> 250
C=CCSc1nc(N)nc2c1ncn2C1C=CC(CO)C1 (configuration not stated)	108 to 110
CC(C)Cc1ccc(CCCN(C)[C@H]2CC[C@H](c3ccc4[nH]c(=O)oc4c3)CC2)cc1	162 to 165
CC(C)(C)C(=O)c1ccc(CC(Cc2ccc(C(=O)C(C)(C)C)cc2)C(=O)O)cc1	107 to 109
O=C1c2ccc(Br)cc2OCC1n1ccnc1 (configuration not stated)	201 to 203
CCOC(=O)OC1C(=O)N(CCN(C)C)c2ccc3ccccc3c2SC1c1ccc(OC)cc1 (configuration not stated)	168 to 169
CCCCCCCCCCCCCCCCCCCNC(=O)C1CSC(c2cccnc2)N1 (configuration not stated)	108 to 110
O=C(O)C1(C2CCCc3ccccc32)CC1 (configuration not stated)	140 to 142
COc1ccc(COCc2nc(C(C)C)c(Sc3cc(Cl)cc(Cl)c3)n2CC(C)=O)cc1	87 to 90
O=C(Nc1ccc2c(c1)CCC2=O)c1cc(Cl)ccc1Cl	218 to 221
CS(=O)(=O)c1ccc(C(CC2CCCC2)C(=O)Nc2nccs2)cc1F (configuration not stated)	200 to 202
COC(=O)CCCCCCCCCCC(C)=S	< 25
COc1ccccc1C(=O)N(c1ccccc1)c1ccc(OCCN(C)C)cc1	82.5 to 85.5
CC(CCNC(=O)C(C#N)=Cc1cc(O)c(O)c(O)c1)NC(=O)C(C#N)=Cc1cc(O)c(O)c(O)c1 (configuration not stated)	> 300
FC(F)(F)Oc1ccc(Nc2nc(Cl)nc(Cl)n2)cc1	119 to 122

Compound	melting point [°C]
C#Cc1ccc2c(c1)-c1c3c(c4c([nH]c5ccccc54)c1C2)C(=O)NC3	> 300
CCc1ccc(C(=O)c2cccc(F)c2)c(O)c1	0 to 20
CC(C)(C)[Si](C)(C)OCCOc1cccnc1Br	81
O=S(=O)(c1ccccc1)c1ccc(N2CCNCC2)cn1	126 to 127
CC(=O)OC12Oc3cc(C)ccc3C1(OC(C)=O)C(=O)c1ccccc12 (configuration not stated)	167 to 169
CCCCS(=O)(=O)NC(=O)N1CC1C#N (configuration not stated)	80 to 85
CCc1nn2c(-c3ccc(OC)cc3Cl)cccc2c1N(CC)CCCF	76.6 to 79.6
CCCCCCCCCCCCCCCCOc1ccc(OCC(=O)O)cc1	125 to 127
O=C(O)c1cn(C2CC2)c2c(F)c(N3CCC(n4ncnn4)C3)c(F)cc2c1=O (configuration not stated)	192 to 199
CC1(CC2CCCC2)Cc2cc(CC(=O)O)c(Cl)c(Cl)c2C1=O (configuration not stated)	146 to 148
CCCCc1nc2c(N)nc3ccccc3c2n1CCNS(C)(=O)=O	210 to 211
CCOC(=O)CC(=O)c1ccc(-c2ccc(Cl)cc2)cc1	45 to 50
CCOC(=O)/C(=C\Nc1cc(OC)cc(OC)c1)c1ccccc1	75 to 76
COc1ccc(OCCOS(N)(=O)=O)cc1	84 to 87
CC(C)c1ccc(N(Cc2ccc(N(C)C)cc2)C(=O)C2CCCc3ccc(O)cc32)cc1 (configuration not stated)	214 to 217
CCOC(=O)CN1CCN(c2ccc(C#N)cc2)CC1=O	108
O=C(NC1CCc2[nH]c3ccc(OC(F)(F)F)cc3c2C1)OCc1ccccc1 (configuration not stated)	123 to 126
Cc1ncn(-c2ccc(C(=O)N3Cc4cccn4Cc4ccccc43)c(C(F)(F)F)c2)n1	148 to 150
ON=C1CC(c2ccccc2)Cc2ccccc21 (configuration not stated)	195
N#CCC1CCSc2sccc2C1=O (configuration not stated)	68 to 70

The next lines start with the values.

melting point [°C]	Compound
108	CCOC1CCN(C(=O)c2ccc(Cl)c(C3(C)C(=O)N(Cc4ccc(OC)cc4OC)c4ccc(Cl)cc43)c2)CC1 (configuration not stated)
99 to 100	COC(=O)C(=O)c1ccc(OCC(=O)c2cccc3ccccc23)cc1
216 to 218	CCNc1cccc2c(S(=O)(=O)Nc3ncc(Br)nc3OC)cccc12
175	Cc1c(Nc2c(C#N)cnc3sc(CCC(=O)N4CCCC4)cc23)ccc2[nH]ccc12
70 to 74	C#CC1(OCc2ccc(Cl)cc2F)CCN(C(C)=O)CC1
140 to 142	CC(C)(C)OC(=O)N1CCC(c2ccc(COc3ccc(S(C)(=O)=O)cc3)cn2)CC1
98 to 101	CC(=O)OCC1OC(n2c(F)nc3c(N)ncnc32)C(OC(C)=O)C1OC(C)=O (configuration not stated)
113 to 115	C=CCOC(C(Cc1ccc(Cl)cc1)n1cncn1)C1(C)COCOC1 (configuration not stated)
136 to 137	OCc1cn(-c2ccc3ccccc3n2)cn1
108 to 110	NC(=O)c1cn(CCOC(=O)Oc2ccccc2)nc1[N+](=O)[O-]
59 to 60	CCCCCCC(Oc1ccc(C2=CCCCCC2)cc1)C(=O)O (configuration not stated)
136	O=C(NC(Cc1ccccc1)C(=O)C(F)F)c1ccccc1 (configuration not stated)
76 to 80	COc1c(C)cnc(Cn2c(SC/C=C(\C)CCC=C(C)C)nc3ccccc32)c1C
146 to 148	CNC(=O)N(N(CCCl)S(C)(=O)=O)S(C)(=O)=O
186 to 188	Cc1ncc(CN2CCc3cc(-c4ccccc4)ccc3C2)c(N)n1
64 to 66	Cc1ccc(S(=O)(=O)OCCNC(=O)OC(C)(C)C)cc1
82 to 84	O=C1OCCN1CCN1CCN(Cc2ccccc2)CC1
99 to 101	Cc1cc(C)c2c(c1C)OC(C)(C)C2=O
154 to 155	CC1CCN(CC#CCN2C(=O)c3cccc4c3N(CC4)c3ccc(Br)cc32)CC1
> 250	Nc1ccc(CCNCCCCCCNCCc2ccc(O)c(O)c2)cc1
208 to 209	NC(=O)[C@@H]1C[C@]2(NC(=O)N(CCCN3CCC(O)CC3)C2=O)c2cc(F)ccc2O1

melting point [°C]	Compound
49 to 50	CCOc1cc(C(=O)CCCC2CCCCC2)c(OCC)cc1C
80 to 82.5	CSC(=C[N+](=O)[O-])NCCSCc1ncccc1Cl
163 to 165	CN1CC(c2ccc(S(C)(=O)=O)cc2)=C(c2ccccc2)C1=O
98 to 105	N#Cc1ccc(C=CCc2ccc(C#N)cc2)cc1
120	O=C(O)C(=O)c1ccc(OCc2cc3ccccc3o2)cc1
126 to 130	COc1cc2c(cc1OC)OCC(=O)C2
180 to 184	COc1cc(/C=C/CNc2cccc(-c3ccnc4c(C(=O)c5cccs5)cnn34)c2)ccc1O
98.6 to 102	O=C(Cc1ccncc1)N1CCC(=C2c3ccc(Cl)cc3CCc3c(On4nnc5ccccc54)ccnc32)CC1
85 to 87	CCCCCCCCCCCCCCCCCCNC(=O)c1ccccc1
208 to 210	CCCCCCCCc1ccc(N(c2ccc(CCCCCCCC)cc2)C2(c3ccc(N(C)C)cc3)OC(=O)c3cc(N(C)C)ccc32)cc1 (configuration not stated)
155 to 156	N#CN=C(Nc1ccc(C#N)cc1O)Nc1cccc(Cl)c1Cl
158 to 159	COc1cccc2c1CCCC2=NO
83 to 85	CC(C)C(C(=O)O)N(C)C(=O)OC(C)(C)C (configuration not stated)
37	CCCCOC(=O)C(NC(=O)OCc1ccccc1)c1cccs1 (configuration not stated)
76 to 78	Cc1ccc2c(c1)C(=O)N(CCO[N+](=O)[O-])CO2
76 to 78	CCOC(=O)C1=CC(CF)(CF)Oc2ccc(Cl)cc21
113 to 114	CC(=O)CCN1CCC(=C2c3ccccc3CCc3ccccc32)CC1
168 to 170	CN1CCCCC1COC(=O)c1c[nH]c2ccccc12 (configuration not stated)
90 to 91	CC(O)CNC(=O)c1cc2ccccc2o1 (configuration not stated)
181	CCOC(=O)N1CCC(Nc2nc3ccccc3n2Cc2ccc(F)cc2)CC1
192 to 193	CC(=O)c1cc(C(=O)O)c(O)c([N+](=O)[O-])c1

melting point [°C]	Compound
95 to 96	CCCCCC(=O)OCn1cc(F)c(=O)[nH]c1=O
89 to 90	Cn1nc(-c2cc([N+](=O)[O-])c(O)cc2F)c(Cl)c1C(F)(F)F
214	O=C(N[C@H]1CC[C@H](CCN2CCN(c3nccc4c3OCC4)CC2)CC1)c1ccc2c(c1)OCO2
195 to 196	COC(=O)c1cn(S(=O)(=O)c2ccccc2)c2ncc([N+](=O)[O-])cc12
79 to 82	CCCCCCCCCCCCCCCCCCOc1cn(C)c(CNCCCO)cc1=O
165 to 168	COc1cc(OC)nc(NC(=O)NS(=O)(=O)c2ccccc2OS(=O)(=O)N(C)C)n1
120 to 121	CC(=O)Nc1nc(CCc2ccc(N)cc2)c(C(=O)NCc2ccc([N+](=O)[O-])cc2)s1
120 to 121	O=C(NCCC(Nc1ccccc1)c1ccccc1)c1ccccc1 (configuration not stated)
106	Cc1nc2c(s1)C(=O)N(C(C)(C)C)C2=O
89 to 91	O=C1c2ccccc2C(=O)N1CCNOCc1ccccc1
152 to 155	CC(=O)Oc1cc2c(c3ccccc13)Nc1ccccc1O2
206	COc1cc(N)c(Cl)cc1C(=O)N[C@H]1CCN(CCNc2nc3ccccc3[nH]2)C[C@H]1OC (relative stereo)
200 to 202	CN1CCN(c2cc3c(Br)cccc3c(=O)[nH]2)CC1CO (configuration not stated)
185 to 186	O=S(=O)(NCc1ccnc2ccccc12)c1ccc(-c2ccc(Cl)cc2)s1
48 to 50	COc1ccc2c(c1)C(CC#N)=CCC2
185 to 186	O=C1COC(c2ccccc2)(c2ccccc2)CCN1Cc1ccccc1
146 to 147	COc1ccc(Cn2c(=O)c3cc(Cl)ccc3n(CCCCBr)c2=O)cc1
106 to 108	COC(=O)C[C@H](O)C[C@H](O)CCc1c(-c2ccc(F)cc2)c(-c2ccc(F)cc2)c(C(=O)Nc2ccc(S(N)(=O)=O)cc2)n1C(C)C
51 to 53	CC(CNC(=O)c1ccc(N2CCC(N3C(=O)C(F)(F)c4ccccc43)CC2)nn1)C1CC1 (configuration not stated)
